Source: article PMC12863032, “Design, synthesis, and anticancer activity of novel isocryptolepine ‘aza’ type acyl thiourea derivatives via combined experimental and computational approach” (Bioscience Reports, 2026)

Experiments:
Format in all cases: biochemical
[1] = biological target: carbonic anhydrase (Bos taurus, UniProt P00921); experiment: Carbonic anhydrase inhibition assay (p-nitrophenyl acetate hydrolysis); settings: bovine enzyme, p-nitrophenyl acetate substrate, Mean ± SEM
Method: The inhibition of carbonic anhydrase was assessed as previously outlined, with certain modifications [[60–62]]. The method employed involves the hydrolysis of p-nitrophenyl acetate by carbonic anhydrase, resulting in the formation of yellow p-nitrophenol, which was subsequently analyzed through spectrophotometry. The reaction mixture included 20 µl of inhibitor, 120 µl of 50 mM Tris-Sulfate buffer (pH 7.6 with 0.1 mM ZnCl2), and 20 µl of bovine enzyme (50 U) per well. The components were mixed and preincubated at 25°C for 10 min. A 6 mM stock solution of the substrate p-nitrophenyl acetate was prepared with less than 5% acetonitrile in buffer and utilized fresh for each experiment, with 40 µl added per well to attain a concentration of […] per well. The total reaction volume was adjusted to 200 µl. […] Acetazolamide served as the reference standard. Each concentration underwent three separate evaluations. IC50 values were determined through nonlinear regression analysis utilizing GraphPad Prism 5.0 (GraphPad, San Diego, CA, U.S.A.).
Inhibition(%)=(B−S)/B×100
Here, the B and S are the absorbances for the blank and samples.

[2] = biological target: mushroom tyrosinase; experiment: Mushroom tyrosinase inhibition assay; settings: L-DOPA substrate, Mean ± SEM
Method: The inhibition of mushroom tyrosinase (Sigma Chemical, U.S.A.) was performed in accordance with previously documented methodologies [[57–59]]. Each well of a 96-well microplate received 20 µl of mushroom tyrosinase (30 U/ml), 20 µl of the inhibitor solution, and 140 µl of phosphate buffer (20 mM, pH 6.8). After a 10 min preincubation at room temperature, 20 µl of L-DOPA (3,4-dihydroxyphenylalanine, Sigma Chemical, U.S.A.) at a concentration of 0.85 mM was added, and the test plate was incubated for an additional 20 min at 25°C. The absorbance of dopachrome was later quantified at 475 nm using a microplate reader (SpectraMax ABS, U.S.A.). […] Every experiment was performed three times. IC50 values were calculated by nonlinear regression using GraphPad Prism 5.0 (GraphPad, San Diego, CA U.S.A.).
The % Inhibition of tyrosinase was calculated as following:
Tyrosinase % Inhibition= (Blank−Sample)/B×100 = ( Equation 1 ).

[3] = biological target: calf intestinal alkaline phosphatase (CIAP) (Bos taurus, UniProt P19111); experiment: Alkaline phosphatase inhibition assay; settings: p-NPP substrate, Mean ± SEM
Chain of calf intestinal alkaline phosphatase (CIAP) (P19111 20-533): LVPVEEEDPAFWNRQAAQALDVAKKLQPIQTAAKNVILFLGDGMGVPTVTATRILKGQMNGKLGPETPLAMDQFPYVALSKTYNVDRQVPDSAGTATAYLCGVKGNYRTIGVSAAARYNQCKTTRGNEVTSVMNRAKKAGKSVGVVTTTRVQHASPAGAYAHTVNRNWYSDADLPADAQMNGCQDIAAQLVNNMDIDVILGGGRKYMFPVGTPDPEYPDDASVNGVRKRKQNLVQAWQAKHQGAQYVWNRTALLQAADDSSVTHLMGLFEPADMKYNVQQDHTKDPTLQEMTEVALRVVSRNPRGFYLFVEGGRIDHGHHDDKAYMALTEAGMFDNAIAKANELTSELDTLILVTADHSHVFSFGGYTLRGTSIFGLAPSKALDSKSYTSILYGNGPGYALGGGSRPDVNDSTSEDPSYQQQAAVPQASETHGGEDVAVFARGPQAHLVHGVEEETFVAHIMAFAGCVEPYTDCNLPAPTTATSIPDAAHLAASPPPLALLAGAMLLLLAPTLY
Method: Spectrophotometric analysis, as previously described in publications, can be used to evaluate the activity of calf intestinal alkaline phosphatase (CIAP). The reaction mixture, including 10 µl of the reagent and 50 mM Tris-HCl buffer (5 mM MgCl2, 0.1 mM ZnCl2, pH 9.5), is preincubated for 10 min following the addition of 5 µl of CIAP (0.025 U/ml). The test mixture was then incubated at 37°C for another half hour after 10 µl of a substrate (0.5 mM p-NPP, para nitrophenyl phosphate disodium salt) was added to initiate the reaction. The alteration in absorbance of released p-nitrophenolate was measured using a 96-well microplate reader (Thermo Scientific Multiskan GO, U.S.A.) at 405 nm. All tests were repeated three times. […] The inhibition activity was calculated according to the following equation:
Inhibition(%)=(Blank−Sample)/Blank×100
IC50 values were designed using 6–8 serial dilutions, and the data were analyzed by nonlinear regression using GraphPad Prism 5 (GraphPad, San Diego, CA, U.S.A.).

[4] = test system: mushroom tyrosinase; experiment: Mushroom tyrosinase inhibition assay

Chain of carbonic anhydrase (P00921 whole entry): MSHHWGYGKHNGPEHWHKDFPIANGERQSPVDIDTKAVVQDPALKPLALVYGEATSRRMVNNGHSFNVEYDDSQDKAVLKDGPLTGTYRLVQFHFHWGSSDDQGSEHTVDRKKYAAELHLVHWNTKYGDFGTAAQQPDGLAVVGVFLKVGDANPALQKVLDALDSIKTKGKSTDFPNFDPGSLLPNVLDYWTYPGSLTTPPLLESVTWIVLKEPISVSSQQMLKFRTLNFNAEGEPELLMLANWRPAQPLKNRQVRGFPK

Structure (SMILES) | IC50 [1] [µM] | IC50 [2] [nM] | IC50 [3] [µM] | Type of tyrosinase inhibition (kinetic studies) [4]
CCCC(=O)NC(=S)Nc1ccccc1-c1nc2ccccc2c2nc3ccccc3n12 [Compound 6a, N-((2-(Benzo [4, 5]imidazo[1,2 c]quinazolin-6-yl)phenyl)carbamothioyl)butyramide] | 10.9 ± 0.99 | 7940 ± 630 | 20.6 | 
CCCCC(=O)NC(=S)Nc1ccccc1-c1nc2ccccc2c2nc3ccccc3n12 [Compound 6b, N -((2-(Benzo[4,5]imidazo[1,2-c]quinazolin-6-yl)phenyl)carbamothioyl)pentanamide] | 2.76 ± 0.56 | 4880 ± 540 | 10.7 ± 0.96 | 
CCCCCC(=O)NC(=S)Nc1ccccc1-c1nc2ccccc2c2nc3ccccc3n12 [Compound 6c, N ((2-(Benzo [4, 5]imidazo[1,2 c]quinazolin-6-yl)phenyl)carbamothioyl)hexanamide] | 7.42 ± 0.74 | 2800 ± 850 | 20.3 | 
CCCCCCCC(=O)NC(=S)Nc1ccccc1-c1nc2ccccc2c2nc3ccccc3n12 [Compound 6e, N-((2-(Benzo [4, 5]imidazo[1,2 c]quinazolin-6-yl)phenyl)carbamothioyl)octanamide] | 1.08 ± 0.42 | 1850 ± 886 | 7.77 | 
CCCCCCCCCC(=O)NC(=S)Nc1ccccc1-c1nc2ccccc2c2nc3ccccc3n12 [Compound 6g, N -((2-(Benzo[4,5]imidazo[1,2-c]quinazolin-6-yl)phenyl)carbamothioyl)decanamide] | 0.708 ± 0.02 | 832 ± 30 | 2.81 ± 0.42 | competitive inhibition

Further molecules by falling IC50 [1], results first:

IC50 [1] [µM] | IC50 [2] [nM] | IC50 [3] [µM] | Type of tyrosinase inhibition (kinetic studies) [4] | Structure (SMILES)
7.14 ± 0.95 | 2050 ± 970 | 7.02 |  | CCCCCCCCC(=O)NC(=S)Nc1ccccc1-c1nc2ccccc2c2nc3ccccc3n12 [Compound 6f, N -((2-(Benzo[4,5]imidazo[1,2-c]quinazolin-6-yl)phenyl)carbamothioyl)nonanamide]
3.51 ± 0.63 | 921 ± 70 | 16.6 ± 0.98 |  | CCCCCCC(=O)NC(=S)Nc1ccccc1-c1nc2ccccc2c2nc3ccccc3n12 [Compound 6d, N-((2-(Benzo [4, 5]imidazo[1,2 c]quinazolin-6-yl)phenyl)carbamothioyl)heptanamide]
2.33 ± 0.34 | 1270 ± 170 | 7.2 ± 0.63 |  | CC(C)(C)C(=O)NC(=S)Nc1ccccc1-c1nc2ccccc2c2nc3ccccc3n12 [Compound 6h, N-((2-(Benzo [4, 5]imidazo[1,2 c]quinazolin-6-yl)phenyl)carbamothioyl)pivalamide]
